Source: PubChem BioAssay AID1963431 (Molecular Pharmacology Branch, DTP, NCI, 2024)
One block for each compound: values may come before it.

Test system: Rh18 complex spheroid viability, percent test/control
Assay: Anticancer human tumor Rh18 cell line growth inhibition [Asc];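 further: spheroids exposed to compound for 7 days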;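 on viability, T/C: 100% = DMSO vehicle control wells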
Conditions: for IC50: curve of first compound; for viability, T/C: stronger effect = lower value
Procedure: Multicellular complex tumor spheroid response to apoptosis pathway targeting inhibitors Alrizomadlin, Pelcitoclax, and Dasminapant in combination with a variety of drugs and investigational agents in selected tumor cell lines
The MDM2 inhibitor alrizomadlin, the Bcl-2/Bcl-xL inhibitor pelcitoclax, and the IAPs inhibitor dasminapant were evaluated both individually and in combination with standard of care and investigational anticancer small molecules within a complex spheroid model of solid tumors. . Complex spheroids include a stromal component modeled by human endothelial cells (HUVEC) and fibroblasts modeled by human mesenchymal stem cells (MSCs). The concentration ranges selected for each drug and investigational agent were based upon clinically achievable concentrations if the clinical Cmax of the agent was known.
Compounds. The drugs and investigational agents: alrizomadlin (APG-115; NSC831270), pelcitoclax (APG-1252; NSC835773), dasminapant (APG-1387;NSC834197), TAK-243 (NSC785004), copanlisib (NSC809693), olaparib (NSC753686), talazoparib (NSC767125), cobimetinib (NSC 768068), eltanexor (KPT-8602, NSC 794443), abemaciclib (NSC 768073), sotorasib (NSC818433), adagrasib (NSC 831453), MRTX-1133 (NSC 836407), Iadademestat (ORY1001, NSC 806812), and RMC-4630 (NSC839698), were obtained from the NCI Developmental Therapeutics Program Chemical Repository. The FDA-approved anticancer drug set is available from the Developmental Therapeutics Program at https://dtp.cancer.gov/organization/dscb/obtaining/available plates.htm. […] The stock solutions were prepared in dimethyl sulfoxide (DMSO, Sigma-Aldrich, St. Louis, MO, cat. D2650) at 800-fold the tested concentration and stored at -70 degrees C prior to their use. All drugs and investigational agents were tested over a range starting from a high concentration at or near the clinical Cmax and decreasing in half-log increments. If the clinical Cmax for an agent had not been determined, the highest concentration tested was 10 microM.
The patient-derived cancer (PDC) cell lines include five colon adenocarcinomas: 186277-243-T-J2-PDC, 616215-338-R-J1-PDC, 439559-082-T-J2-PDC, 463943-066-T-J2-PDC, and 519858-162-T-J1-PDC; three pancreatic carcinomas: 323965-272-R-J2-PDC, 521955-158-R6-J3-PDC, and 521955-158-R2-J5-PDC; two uterine sarcomas: 327498-152-R-J2-PDC and 993429-296-R-J1-PDC; two rhabdomyosarcomas: 755483-174-R-J1-PDC and 772245-204-R-J1-PDC; two soft tissue sarcomas: 126254-015-R-J1-PDC and 494315-158-R-J1-PDC; two malignant fibrous histiocytomas: 317291-083-R-J1-PDC and 596521-263-R-J1-PDC; two breast carcinomas: 171881-019-R-J1-PDC and 885512-296-R-J2-PDC; and one ovarian carcinoma: 6556581-035-R-J-PDC were obtained from the NCI PDMR, (https://pdmr.cancer.gov). The established cell lines HSSY-2 synovial sarcoma (RRID:CVCL 8719), SYO-1 synovial sarcoma (RRID:CVCL_7146), MPNST malignant peripheral neural sheath tumor were obtained from the Sloan Kettering Institute. The following established cell lines were purchased from the American Type Culture Collection (ATCC, Manassas, VA), Sor the received from the NCI repository:, PANC-1 pancreatic carcinoma (CRL-1469, RRID:CVCL_0480), OVCAR-5 ovarian carcinoma (RRID:CVCL_1628), OVCAR-8 ovarian carcinoma (RRID:CVCL_1629), , MCF-7 breast carcinoma (CRL-12584, RRID:CVCL_0031), MDA-MB-231 breast carcinoma (CRL-12532, RRID:CVCL_0062), NCI-H1876 small cell lung carcinoma (CRL-5902, RRID:CVCL_1503), NCI-H510A small cell lung carcinoma (HTB-184, RRID:CVCL_1565), NCI-H1417 (CRL-5869, RRID:CVCL_1469), and NCI-H196 small cell lung carcinoma (CRL-5823, RRID:CVCL_1509). Dr. Peter Houghton (Greehey Children's Cancer Research Institute, University of Texas Health Science Center, San Antonio, TX) provided Rh-18 rhabdomyosarcoma (RRID:CVCL_1659). Pooled donor human umbilical vein endothelial cells (HUVEC, Lonza, cat. CC-2519) and human mesenchymal stem cells (hMSC, Lonza, cat. PT-2501) were purchased from Lonza (Walkersville, MD).
Cell Culture. […]

[1] = second compound 0.03 µM, first compound 0.00316 µM
[2] = second compound 0.03 µM, first compound 0.01 µM
[3] = second compound 0.03 µM, first compound 0.0316 µM
[4] = second compound 0.03 µM, first compound 0.1 µM
[5] = second compound 0.0949 µM, first compound 0.00316 µM
[6] = second compound 0.0949 µM, first compound 0.01 µM
[7] = second compound 0.0949 µM, first compound 0.0316 µM
[8] = second compound 0.0949 µM, first compound 0.1 µM
[9] = second compound 0.3 µM, first compound 0.00316 µM
[10] = second compound 0.3 µM, first compound 0.01 µM
[11] = second compound 0.3 µM, first compound 0.0316 µM
[12] = second compound 0.3 µM, first compound 0.1 µM
[13] = second compound 0.949 µM, first compound 0.00316 µM
[14] = second compound 0.949 µM, first compound 0.01 µM
[15] = second compound 0.949 µM, first compound 0.0316 µM
[16] = second compound 0.949 µM, first compound 0.1 µM
[17] = second compound 3 µM, first compound 0.00316 µM
[18] = second compound 3 µM, first compound 0.01 µM
[19] = second compound 3 µM, first compound 0.0316 µM
[20] = second compound 3 µM, first compound 0.1 µM

IC50 (second compound 0.03 µM): < 3.16 nM
IC50 (second compound 0.0949 µM): < 3.16 nM
IC50 (second compound 0.3 µM): < 3.16 nM
IC50 (second compound 0.949 µM): < 3.16 nM
IC50 (second compound 3 µM): < 3.16 nM
Structure (SMILES): CCN1CCN(Cc2ccc(Nc3ncc(F)c(-c4cc(F)c5nc(C)n(C(C)C)c5c4)n3)nc2)CC1 + CCN1C(C(=O)NC23CCC(C(=O)O)(CC2)CC3)C(c2cccc(Cl)c2F)C2(C(=O)Nc3cc(Cl)ccc32)C12CCCCC2
viability, T/C [1]: 42.9%
viability, T/C [2]: 39.7%
viability, T/C [3]: 41.4%
viability, T/C [4]: 38.6%
viability, T/C (second compound 0.03 µM, first compound 0.316 µM): 46.5%
viability, T/C (second compound 0.03 µM, first compound 1 µM): 56.1%
viability, T/C [5]: 25.2%
viability, T/C [6]: 24.9%
viability, T/C [7]: 26.3%
viability, T/C [8]: 29.5%
viability, T/C (second compound 0.0949 µM, first compound 0.316 µM): 34.6%
viability, T/C (second compound 0.0949 µM, first compound 1 µM): 56.7%
viability, T/C [9]: 11.7%
viability, T/C [10]: 12.9%
viability, T/C [11]: 14%
viability, T/C [12]: 14.4%
viability, T/C (second compound 0.3 µM, first compound 0.316 µM): 14.2%
viability, T/C (second compound 0.3 µM, first compound 1 µM): 19.8%
viability, T/C [13]: 9.3%
viability, T/C [14]: 8.54%
viability, T/C [15]: 10.2%
viability, T/C [16]: 11.4%
viability, T/C (second compound 0.949 µM, first compound 0.316 µM): 10.6%
viability, T/C (second compound 0.949 µM, first compound 1 µM): 14.6%
viability, T/C [17]: 8.98%
viability, T/C [18]: 7.11%
viability, T/C [19]: 8.3%
viability, T/C [20]: 7.8%
viability, T/C (second compound 3 µM, first compound 0.316 µM): 8.59%
viability, T/C (second compound 3 µM, first compound 1 µM): 13.3%

IC50 (second compound 0.03 µM): < 0.949 nM
IC50 (second compound 0.0949 µM): < 0.949 nM
IC50 (second compound 0.3 µM): < 0.949 nM
IC50 (second compound 0.949 µM): < 0.949 nM
IC50 (second compound 3 µM): < 0.949 nM
Structure (SMILES): NC(=O)C(=Cn1cnc(-c2cc(C(F)(F)F)cc(C(F)(F)F)c2)n1)c1cncnc1 + CCN1C(C(=O)NC23CCC(C(=O)O)(CC2)CC3)C(c2cccc(Cl)c2F)C2(C(=O)Nc3cc(Cl)ccc32)C12CCCCC2
viability, T/C (second compound 0.03 µM, first compound 0.000949 µM): 39.2%
viability, T/C (second compound 0.03 µM, first compound 0.003 µM): 32%
viability, T/C (second compound 0.03 µM, first compound 0.00949 µM): 37.7%
viability, T/C (second compound 0.03 µM, first compound 0.03 µM): 32%
viability, T/C (second compound 0.03 µM, first compound 0.0949 µM): 26.6%
viability, T/C (second compound 0.03 µM, first compound 0.3 µM): 22.1%
viability, T/C (second compound 0.0949 µM, first compound 0.000949 µM): 19.4%
viability, T/C (second compound 0.0949 µM, first compound 0.003 µM): 18.7%
viability, T/C (second compound 0.0949 µM, first compound 0.00949 µM): 16.7%
viability, T/C (second compound 0.0949 µM, first compound 0.03 µM): 12.7%
viability, T/C (second compound 0.0949 µM, first compound 0.0949 µM): 9.47%
viability, T/C (second compound 0.0949 µM, first compound 0.3 µM): 4.98%
viability, T/C (second compound 0.3 µM, first compound 0.000949 µM): 9.47%
viability, T/C (second compound 0.3 µM, first compound 0.003 µM): 9.88%
viability, T/C (second compound 0.3 µM, first compound 0.00949 µM): 9.7%
viability, T/C (second compound 0.3 µM, first compound 0.03 µM): 6.03%
viability, T/C (second compound 0.3 µM, first compound 0.0949 µM): 5%
viability, T/C (second compound 0.3 µM, first compound 0.3 µM): 1.69%
viability, T/C (second compound 0.949 µM, first compound 0.000949 µM): 7.7%
viability, T/C (second compound 0.949 µM, first compound 0.003 µM): 9.36%
viability, T/C (second compound 0.949 µM, first compound 0.00949 µM): 6.31%
viability, T/C (second compound 0.949 µM, first compound 0.03 µM): 4.21%
viability, T/C (second compound 0.949 µM, first compound 0.0949 µM): 3.62%
viability, T/C (second compound 0.949 µM, first compound 0.3 µM): 1.42%
viability, T/C (second compound 3 µM, first compound 0.000949 µM): 6.6%
viability, T/C (second compound 3 µM, first compound 0.003 µM): 6.14%
viability, T/C (second compound 3 µM, first compound 0.00949 µM): 5.36%
viability, T/C (second compound 3 µM, first compound 0.03 µM): 4.12%
viability, T/C (second compound 3 µM, first compound 0.0949 µM): 2.88%
viability, T/C (second compound 3 µM, first compound 0.3 µM): 1.03%

IC50 (second compound 0.03 µM): < 0.316 nM
IC50 (second compound 0.0949 µM): < 0.316 nM
IC50 (second compound 0.3 µM): < 0.316 nM
IC50 (second compound 0.949 µM): < 0.316 nM
IC50 (second compound 3 µM): < 0.316 nM
Structure (SMILES): NC1CCC(NC2CC2c2ccccc2)CC1 (stereo not given) + CCN1C(C(=O)NC23CCC(C(=O)O)(CC2)CC3)C(c2cccc(Cl)c2F)C2(C(=O)Nc3cc(Cl)ccc32)C12CCCCC2
viability, T/C (second compound 0.03 µM, first compound 0.000316 µM): 31.7%
viability, T/C (second compound 0.03 µM, first compound 0.001 µM): 31.3%
viability, T/C [1]: 30.4%
viability, T/C [2]: 29.5%
viability, T/C [3]: 33.9%
viability, T/C [4]: 34.5%
viability, T/C (second compound 0.0949 µM, first compound 0.000316 µM): 19.3%
viability, T/C (second compound 0.0949 µM, first compound 0.001 µM): 23.4%
viability, T/C [5]: 18.8%
viability, T/C [6]: 19%
viability, T/C [7]: 19.6%
viability, T/C [8]: 20.9%
viability, T/C (second compound 0.3 µM, first compound 0.000316 µM): 11.1%
viability, T/C (second compound 0.3 µM, first compound 0.001 µM): 13.3%
viability, T/C [9]: 13%
viability, T/C [10]: 13.3%
viability, T/C [11]: 12.9%
viability, T/C [12]: 14.4%
viability, T/C (second compound 0.949 µM, first compound 0.000316 µM): 11.6%
viability, T/C (second compound 0.949 µM, first compound 0.001 µM): 10.8%
viability, T/C [13]: 9.55%
viability, T/C [14]: 8.96%
viability, T/C [15]: 10.3%
viability, T/C [16]: 11.3%
viability, T/C (second compound 3 µM, first compound 0.000316 µM): 11%
viability, T/C (second compound 3 µM, first compound 0.001 µM): 10.2%
viability, T/C [17]: 11.8%
viability, T/C [18]: 10.1%
viability, T/C [19]: 8.61%
viability, T/C [20]: 9.99%
